We go through 1 compound from patent US20160201075A1, “REGULATOR OF ALGAL LIPID METABOLISM AND CELLULAR […] ITS APPLICATIONS” (Board of Trustees of Michigan State University, priority 2014, published 2016).

The test deals with C. reinhardtii. As to the kind of experiment: Growth in medium with 1 μM Rapamycin (time needed for division). It counts as cell-based, Chlamydomonas reinhardtii. Conditions: saturating concentration of Rapamycin (1 μM). From the text:
FIGS. 3A-3D illustrates the growth of cht7—expressing cells affected by different treatments. FIG. 3A graphically illustrates growth of cht7 and parental (dw15) lines on nitrogen-replete medium (optical density (OD) at 550 nm). Doubling times are given in parentheses. The grey bar indicates the OD at which nitrogen-replete samples were taken for all experiments in this study. Averages of three biological replicates are given with standard deviations for all points being smaller than 3%. FIG. 3B graphically illustrates growth of dw15, cht7, and four independent complementation lines (C1-4) during nitrogen deprivation (−N) followed by nitrogen resupply (+N) measured at the times indicted. Insert, cultures at 24 h following nitrogen resupply. FIG. 3C graphically illustrates growth during phosphate deprivation (−P) followed by phosphate resupply (+P). FIG. 3D graphically illustrates growth in the medium with 1 μM Rapamycin (+R) followed by the removal of Rapamycin (−R). Cultures were diluted twice (a) with medium containing 1 μM Rapamycin to avoid reaching stationary phase.
Growth under different nitrogen and phosphate regimes and following Rapamycin treatment, plating and viability assays, as well as lipid assays were performed using established methods.
Growth of the cht7 mutant was normal in nitrogen-replete medium under standard conditions (FIG. 3A). […]

Regarding `CO[C@H]1C[C@@H]2CC[C@@H](C)[C@@](O)(O2)C(=O)C(=O)N2CCCC[C@H]2C(=O)O[C@H]([C@H](C)C[C@@H]2CC[C@@H](O)[C@H](OC)C2)CC(=O)[C@H](C)/C=C(\C)[C@@H](O)[C@@H](OC)C(=O)[C@H](C)C[C@H](C)/C=C/C=C/C=C/1C` [Rapamycin], the “time needed for division” value by setting is: (cht7 mutant) 30.1 h; (parental line (dw15)) 23.9 h.
